# Test results from patent US20230331685A1, “HERBICIDAL COMPOUNDS AND METHODS OF USE THEREOF” (AG Plenus Ltd, priority 2020, published 2023).
# Assays:
# Assay type in all cases: in vivo
# Arabidopsis thaliana [1] = assay: HTPS pre-emergence application on dicot model plant
# Protocol: The plates were placed in a controlled greenhouse in a random order inside a bath which allows flooding irrigation with tap water supplemented with a fertilizer. Applied compounds were dissolved into a final solution of 50% acetone, 49.9% DDW, 0.1% tween-20. A 96 well plate was used as a stock plate for preparing application solutions for 8 repeats. Each row contained different concentrations per chemical. Maximal concentration for application was 1.5 Kg/Ha and dilution factor is 2.5. Chemical application was performed one day after thinning out in a chemical hood. […] applied on first two true leaves in each well using 12 channel pipettes. Data collection: RGB (red, green, blue) data for green area per well was documented using camera. Data is collected at a few time points during the experiment: one day after thinning and before chemical application, two-, six- or nine-days post application. During the last two documentations, visual phenotyping was performed. Data analysis: Given RGB results and visual phenotype scores, a student t-test conducted to compare between treatment and control performance for continuous data (RGB) and Fisher exact test to analyze the non-continuous data (phenotypic scores). Dose-Response curves are generated for each treatment to infer ED50 and max. inhibition parameters, using treatment's log concentration range as the […] and normalized green area. […] Plate imaging performed at 11 and 18 DAA. RGB data for green area per well was documented and used to extract % inhibition. Dose-Response curves were built for each treatment to infer EC50, EC75 and EC90 parameters, using treatment's log concentration range as the independent variable and normalized green area as the dependent variable. Treatments were compared to controls performance given RGB results and using student's t-test (p-val≤0.05). Compounds 104-154 were applied in either or both pre- and post-emergence mode to either or both monocot and dicot model plants, following the methods described above. The compounds were applied as a gradient of concentrations as listed above, from which the ED50 was calculated.
# [2] = tested on: monocot and eudicot weeds species; assay: In-planta LTP weed panel, overall assessment; conditions: monocot and eudicot weeds species; both post-emergence and pre-emergence; most of the species tested
# Lolium perenne [3] = assay: LTP post-emergence greenhouse test; conditions: Dosage 2000 g/ha
# Phalaris paradoxa [4] = assay: LTP post-emergence greenhouse test; conditions: Dosage 2000 g/ha
# Arabidopsis thaliana [5] = assay: HTPS post-emergence application on miniature dicot model plant
# Protocol: The plates were placed in a controlled greenhouse in a random order inside a bath which allows flooding irrigation with tap water supplemented with a fertilizer. Applied compounds were dissolved into a final solution of 50% acetone, 49.9% DDW, 0.1% tween-20. A 96 well plate was used as a stock plate for preparing application solutions for 8 repeats. Each row contained different concentrations per chemical. Maximal concentration for application was 1.5 Kg/Ha and dilution factor is 2.5. Chemical application was performed one day after thinning out in a chemical hood. […] applied on first two true leaves in each well using 12 channel pipettes. Data collection: RGB (red, green, blue) data for green area per well was documented using camera. Data is collected at a few time points during the experiment: one day after thinning and before chemical application, two-, six- or nine-days post application. During the last two documentations, visual phenotyping was performed. Data analysis: Given RGB results and visual phenotype scores, a student t-test conducted to compare between treatment and control performance for continuous data (RGB) and Fisher exact test to analyze the non-continuous data (phenotypic scores). Dose-Response curves are generated for each treatment to infer ED50 and max. inhibition parameters, using treatment's log concentration range as the […] variable and normalized green area. Plate imaging performed at 11 and 18 DAA. RGB data for green area per well was documented and used to extract % inhibition. Dose-Response curves were built for each treatment to infer EC50, EC75 and EC90 parameters, using treatment's log concentration range as the independent variable and normalized green area as the dependent variable. Treatments were compared to controls performance given RGB results and using student's t-test (p-val≤0.05). Compounds 104-154 were applied in either or both pre- and post-emergence mode to either or both monocot and dicot model plants, following the methods described above. The compounds were applied as a gradient of concentrations as listed above, from which the ED50 was calculated.
# Phalaris paradoxa [6] = assay: LTP pre-emergence greenhouse test; conditions: Dosage 2000 g/ha
# Protocol: (§1) A basic panel of 8 weed species (Table 3) were sowed in 4×4×7 cm plastic pots containing inert sand (Sweet sand), intensively washed using osmosis water. Each specie was sowed in a separate pot. In each pot 10-15 seeds were sowed according to the specie viability. Sowing was performed one day before application. The plants were grown for 21 days in a controlled greenhouse (26±2° C. day 20±2° C. night). Hood irrigation (tap water+Shefer 5:3:8 8 mM) was given at a 50% water content by weight. Compounds were soluble in water (DDW), and commercial herbicide control was soluble in formulation B (Table 4). Application was conducted with an industrial sprayer (TeeJet 6502E nozzle) at a rate of 2 kg/ha and spray volume of […]. Pre-emergence advanced dose response experiment application was conducted at six rates between 1-0.0312 kg/ha and spray volume of […]. Percentage of emergence was evaluated at 15 DAA. Visual phenotyping was recorded using a scale of 0-6 (0: no visible effect, 6: maximum effect) at 18 DAA. All experiments included an untreated control, a solvent control and a positive control (commercial herbicide A.I.). […] Statistical analysis for plant emergence determined by % emergence ≥50 and T test (pval≤0.05), as well as Wilcox test (pval≤0.05).
# Lolium perenne [7] = assay: LTP pre-emergence greenhouse test; conditions: Dosage 2000 g/ha
# Protocol: as §1
# Sinapis alba = assay: LTP pre-emergence greenhouse test; conditions: Dosage 2000 g/ha
# Protocol: as §1
# Alopecurus myosuroides = assay: LTP pre-emergence greenhouse test; conditions: Dosage 2000 g/ha
# Protocol: as §1
# Ambrosia artemisiifolia = assay: LTP pre-emergence greenhouse test; conditions: Dosage 2000 g/ha
# Protocol: as §1
# Matricaria chamomilla = assay: LTP pre-emergence greenhouse test; conditions: Dosage 2000 g/ha
# Protocol: as §1
# Abutilon theophrasti [8] = assay: LTP pre-emergence greenhouse test; conditions: Dosage 2000 g/ha
# Protocol: as §1
# Eragrostis tef [9] = assay: LTP pre-emergence greenhouse test; conditions: Dosage 2000 g/ha
# Protocol: as §1
# Setaria viridis = assay: LTP pre-emergence greenhouse test; conditions: Dosage 2000 g/ha
# Protocol: as §1
# Conyza canadensis = assay: LTP post-emergence greenhouse test; conditions: Dosage 2000 g/ha
# Eragrostis tef [10] = assay: LTP post-emergence greenhouse test; conditions: Dosage 2000 g/ha
# Solanum nigrum = assay: LTP post-emergence greenhouse test; conditions: Dosage 2000 g/ha
# Abutilon theophrasti [11] = assay: LTP post-emergence greenhouse test; conditions: Dosage 2000 g/ha
# [12] = dose-response of normalized green area
compound,measurement,setting,value
"C[C@@H](O)[C@@H](N)CCCCC(=O)O [Compound 104, (6S,7R)-6-amino-7-hydroxyoctanoic acid]",ED50 (g/ha),Arabidopsis thaliana [1]; [12],6 g/ha
same,Max Inhibition (%),Arabidopsis thaliana [1]; green area (RGB),94%
same,control of weeds (in words),[2],excellent control
same,"Herbicidal activity (In-planta), LTP-Post emergence, Lolium perenne",Lolium perenne [3],85-90
same,"Herbicidal activity (In-planta), LTP-Post emergence, Phalaris paradoxa",Phalaris paradoxa [4],80
same,Emax,"Arabidopsis thaliana [5]; Arabidopsis thaliana, post-emergence, green area (RGB), read-out: Max Inhibition (%)",100%
same,ED50 (g/ha),Arabidopsis thaliana [5]; [12],0.2 g/ha
same,"Herbicidal activity (In-planta), LTP-Pre emergence, Phalaris paradoxa",Phalaris paradoxa [6],60
same,"Herbicidal activity (In-planta), LTP-Pre emergence, Lolium perenne",Lolium perenne [7],80
same,"Herbicidal activity (In-planta), LTP-Pre emergence, Sinapis alba",Sinapis alba,40-60
same,"Herbicidal activity (In-planta), LTP-Pre emergence, Alopecurus myosuroides",Alopecurus myosuroides,40
same,"Herbicidal activity (In-planta), LTP-Pre emergence, Ambrosia artemisiifolia",Ambrosia artemisiifolia,0
same,"Herbicidal activity (In-planta), LTP-Pre emergence, Matricaria chamomilla",Matricaria chamomilla,80
same,"Herbicidal activity (In-planta), LTP-Pre emergence, Abutilon theophrasti",Abutilon theophrasti [8],60-80
same,"Herbicidal activity (In-planta), LTP-Pre emergence, Eragrostis tef",Eragrostis tef [9],100
same,"Herbicidal activity (In-planta), LTP-Pre emergence, Setaria viridis",Setaria viridis,100
same,"Herbicidal activity (In-planta), LTP-Post emergence, Conyza canadensis",Conyza canadensis,95
same,"Herbicidal activity (In-planta), LTP-Post emergence, Eragrostis tef",Eragrostis tef [10],60-100
same,"Herbicidal activity (In-planta), LTP-Post emergence, Solanum nigrum",Solanum nigrum,80-90
same,"Herbicidal activity (In-planta), LTP-Post emergence, Abutilon theophrasti",Abutilon theophrasti [11],80
